The values that follow come from article PMC11280343, “Rubus urticifolius Compounds with Antioxidant Activity, and Inhibition Potential against Tyrosinase, Melanin, Hyaluronidase, Elastase, and Collagenase” (Pharmaceuticals, 2024).

The subject of data set [1] is Nrf2. Kind of data set: Nrf2 activation assay, HMCB. The conditions noted are these: Homo sapiens, 72 h, read-out: Activation of Nrf2 production EC50. In kind it is cell-based. The procedure:
(§1) To determine the antioxidant response of the samples (at the same concentration as in the viability assay), Nrf2 activation assay was used, following the protocol carried out by Apaza Ticona et al.. Cells were cultured in 96-well plates (1 × 10^6 cells/well). […] Absorbance was measured at 540 nm using a microplate reader.

Data set [2] relates to NF-κB. The data set can be described thus: NF-κB inhibition assay (LPS-stimulated), THP-1. In kind it is cell-based. Particulars: Homo sapiens, read-out: NF-κB Inhibition at 72 h IC50 ± SEM. Here is the method:
(§2) To determine the anti-inflammatory activity of the samples (at the same concentration as in the viability assay), NF-κB inhibition assay was used, following the protocol carried out by Apaza Ticona et al.. Cells were cultured in 96-well plates (1 × 10^6 cells/well). […] Absorbance was measured at 450 nm using a microplate reader.

The subject of a further data set is collagenase. The data set can be described thus: Collagenase inhibitory assay. Type of data set: biochemical. Particulars: for Collagenase Inhibition (%): inhibition percentage 'at an IC50', concentration not otherwise stated; for IC50: read-out: Anti-Collagenase IC50. Here is the method:
A fixed weight of 1 mg of azo dye-impregnated collagen was measured in the test tubes. Subsequently, 800 μL of 0.1 M Tris-HCl (pH 7) and 100 μL of the samples at the same concentrations used as in the viability assay were added to each test tube. Next, 100 μL of collagenase (200 units/mL) was immediately mixed into the mixture and the tubes were incubated at 43 °C for 1 h. After incubation, the test tubes were centrifuged at 3000 rpm for 10 min. The supernatant from each tube was transferred into 96-well plates and the absorbance of each supernatant was measured at 550 nm using a microplate reader.

A short description of data set [3]: NR viability assay, THP-1. Type of data set: cell-based, Homo sapiens. Particulars: human. Here is the method: (§3) The HEK001 (Homo sapiens cutaneous keratinocyte, CCL-2404), WS1 (Homo sapiens cutaneous fibroblast, CRL-1502), HMCB (Homo sapiens cutaneous melanoma, CRL-9607), and THP-1 (Homo sapiens peripheral blood monocyte, TIB-202) cell lines used in this study were obtained from the American Type Culture Collection (ATCC, Manassas, VA, USA). Cultivated in a Roswell Park Memorial Institute (RPMI) 1640 medium (RPMI 1640 Merck, Cat. No. R7755, New York, NY, USA) supplemented with 2 mM L-glutamine (≥99% Merck, Cat. No. 56-85-9), 10% fetal bovine serum (FBS Merck, Cat. No. TMS-016, St. Louis, MO, USA), and 10,000 units of penicillin and 10 mg streptomycin/mL (Merck, Cat. No. P4333, St. Louis, MO, USA) in culture flasks, the cells were maintained in an incubator under normoxic conditions (20–21% O2) and a humidified atmosphere (5% CO2 at 37 °C).
(§4) Mother solutions of samples (extracts, fractions, and compounds) were prepared at a concentration of […] using dimethyl sulfoxide (DMSO ≥ 99.9% Merck, Cat. No. 67-68-5, St. Louis, MO, USA) as the solvent. From these mother solutions, dilutions were prepared at concentrations ranging from 100 to 0.20 μg/mL or μM in culture medium containing 0.5% DMSO. Additionally, a negative control group consisting solely of culture medium with 0.5% DMSO was included to assess its potential cytotoxic effect on the cells.
(§5) Cell viability was evaluated using a colorimetric assay in 96-well plates, employing 3-amino-7-dimethylamino-2-methylphenazine hydrochloride salt reagent (NR, Merck, Cat. No. 553-24-2, St. Louis, MO, USA).
(§6) HEK001, WS1, HMCB, and THP-1 cell lines were cultured in 96-well plates at 37 °C with 5% CO2 until > 90% confluency was achieved (1 × 10^6 cells/well). Subsequently, the cultures were treated with sample dilutions (100–0.20 μg/mL or μM) for 72 h at 37 °C with 5% CO2 in phenol red-free RPMI. The supernatant was then discarded and the cells were washed with phosphate-buffered saline (PBS) before being incubated with […] NR (50 μg/mL; 173 μM) for 3 h at 37 °C with 5% CO2. NR labelling was performed after DMSO treatment. After incubation, the labelled sample dilutions were rapidly washed with a fixative solution composed of 1% calcium chloride (CaCl2 Merck, Cat. No. 10043-52-4, St. Louis, MO, USA) and 0.5% formaldehyde solution (≥36.0% in H2O Merck, Cat. No. 50-00-0, St. Louis, MO, USA), then diluted with 100 μL of the NR extraction solution. Finally, the plates were read at 540 nm using a microplate reader (Anthos 2020, version 2.0.5, Biochrom Ltd., Cambridge, UK).

A further data set in a line: NR viability assay, WS1. The conditions noted are these: human. In kind it is cell-based, Homo sapiens. Here is the method:
as §3, §4, §5, §6

Data set [4] relates to Nrf2. The data set can be described thus: Nrf2 activation assay, HEK001. Type of data set: cell-based. Here is the method:
as §1

A further data set is described as follows: NR viability assay, HMCB. Type of data set: cell-based, Homo sapiens. Particulars: human. Here is the method: as §3, §4, §5, §6
Data set [5] has as its system NF-κB. The data set can be described thus: NF-κB inhibition assay (LPS-stimulated), WS1. Type of data set: cell-based. Particulars: Homo sapiens, 72 h, read-out: NF-κB Inhibition at 72 h IC50 ± SEM. The procedure:
as §2

Data set [6] deals with Nrf2. Kind of data set: Nrf2 activation assay, THP-1. In kind it is cell-based. Here is the method:
as §1

Data set [7] relates to Nrf2. Kind of data set: Nrf2 activation assay, WS1. In kind it is cell-based. Particulars: Homo sapiens, read-out: Activation of Nrf2 production EC50. The procedure: as §1
A further data set concerns THP-1 cell line. The data set can be described thus: NR viability assay, THP-1. Type of data set: cell-based, Homo sapiens. Particulars: 72 h. The procedure:
as §3, §4, §5, §6

Another data set has as its system WS1 cell line. The data set can be described thus: NR viability assay, WS1. Type of data set: cell-based, Homo sapiens. Particulars: WS1, NR assay, 72 h. Here is the method: as §3, §4, §5, §6
Another data set concerns HMCB cell line. Kind of data set: NR viability assay, HMCB. In kind it is cell-based, Homo sapiens. The conditions noted are these: HMCB, NR assay, 72 h. The procedure: as §3, §4, §5, §6
The test system of the next data set is HEK001 cell line. Kind of data set: NR viability assay, HEK001. In kind it is cell-based, Homo sapiens. The conditions noted are these: HEK001, NR assay, 72 h. Here is the method:
as §3, §4, §5, §6

Setting [8] is: Homo sapiens, HEK001, 72 h; read-out: Activation of Nrf2 production EC50.
The mark [9] stands for this setting: Homo sapiens, THP-1, 72 h; read-out: Activation of Nrf2 production EC50.

Read-outs that look alike come from different tables or passages of the source.

Regarding `CNC(=O)c1ccccc1NC(=O)/C=C/c1ccc(OC)c(OC)c1` [Compound 1, (E)-2-(3-(3,4-dimethoxyphenyl)acrylamido)-N-methylbenzamide], the EC50 in the data set on Nrf2 [1] came out at 0.385 µM; in the data set on Nrf2 [4] (setting [8]), 0.202 µM; in the data set on Nrf2 [6] (setting [9]), 0.116 µM; with Nrf2 [7] (WS1, 72 h), 0.268 µM. The IC50 in the data set on NF-κB [2] (THP-1, LPS-stimulated, 72 h) was found to be 12.7 ± 0.34 µM; at collagenase, 76.6 ± 1.31 µM; with NF-κB [5] (WS1, LPS-stimulated) it was 11 ± 0.67 µM. In the data set on collagenase, the “Collagenase Inhibition (%)” value came to 62.24 ± 1.42%. Also, the CC50 at 72 h in data set [3] (THP-1 cells (peripheral blood monocytes), THP-1, NR assay, 72 h, read-out: Viability CC50) was found to be 80 µM; in “NR viability assay, WS1” (WS1 cells (cutaneous fibroblasts), WS1, NR assay, 72 h, read-out: Viability CC50), 73 µM; in the data set “NR viability assay, HMCB” (HMCB cells (cutaneous melanoma), HMCB, NR assay, 72 h, read-out: Viability CC50) it was 69.8 µM.
For the compound `O=C(O)c1cc(O)c2ccccc2n1` [Compound 2, 4-hydroxyquinoline-2-carboxylic acid], the EC50 came to 0.506 µM with Nrf2 [1]; 0.32 µM in the data set on Nrf2 [4] (setting [8]); 0.49 µM in the data set on Nrf2 [6] (setting [9]); 0.361 µM in the data set with Nrf2 [7] (WS1, 72 h). Further, the IC50 came to 37.2 ± 0.72 µM in the data set on NF-κB [2] (THP-1, LPS-stimulated, 72 h); 152 ± 3.73 µM at collagenase; 32.7 ± 0.51 µM in the data set on NF-κB [5] (WS1, LPS-stimulated). Moreover, the “Collagenase Inhibition (%)” value in the data set with collagenase came out at 24.87 ± 1.34%. Moreover, the CC50 at 72 h in data set [3] (Viability CC50) amounted to 100 µM; in “NR viability assay, WS1”, 89.9 µM; in the data set “NR viability assay, HMCB” it was 87.7 µM. Besides, the CC50 with THP-1 cell line (human) was more than 100 µM.
Consider `N#C/C(=C\c1ccc(O)cc1)C(=O)O` [Compound 3, (E)-2-cyano-3-(4-hydroxyphenyl)acrylic acid], for which the EC50 with Nrf2 [1] was 1.02 µM; in the data set with Nrf2 [4] (Homo sapiens, HEK001, 72 h, read-out: Activation of Nrf2 production EC50), 0.951 µM; with Nrf2 [6] (Homo sapiens, THP-1, 72 h, read-out: Activation of Nrf2 production EC50), 0.707 µM; in the data set with Nrf2 [7] (72 h), 0.983 µM. Besides, the IC50 with NF-κB [2] (THP-1, 72 h) turned out to be 58.8 ± 0.86 µM; at collagenase it was 187 ± 2.61 µM; in the data set on NF-κB [5], 53.21 ± 0.23 µM. Besides, the “Collagenase Inhibition (%)” value with collagenase was 7.73 ± 1.21%. Further, the CC50 at 72 h in [3] (THP-1, NR assay, 72 h, read-out: Viability CC50) is 141 µM; in the data set “NR viability assay, WS1” (WS1, NR assay, 72 h, read-out: Viability CC50) it was 107 µM; in the data set “NR viability assay, HMCB” (HMCB, NR assay, 72 h, read-out: Viability CC50) it was 98.4 µM. Moreover, the CC50 with THP-1 cell line (THP-1, NR assay, read-out: Viability CC50) was more than 100 µM; in the data set with WS1 cell line, more than 100 µM; in the data set with HMCB cell line, 98.6 µM; in the data set with HEK001 cell line it was more than 100 µM.
